Data set [1] has as its system Trypanosoma brucei brucei. Kind of data set: Antitrypanosomal activity against Trypanosoma brucei brucei Lister 427 at 18 hrs post dose by resazurin-based assay. In kind it is functional. To be noted: Lister 427, 18 h. On the technique in general: Resazurin is reduced to fluorescent resorufin, in cell work by metabolically active cells.
Data set [2] in a line: Cytotoxicity against human HepG2 cells after 48 hrs by Cell Titer Glo assay. The data set is classed as cell-based. To be noted: read-out: pTC50 (converted).
Data set [3] has as its system Trypanosoma brucei brucei. Kind of data set: Antitrypanosomal activity against Trypanosoma brucei brucei Lister 427 at 70 hrs post dose by resazurin-based assay. The data set is classed as functional.
Data set [4] concerns Trypanosoma cruzi. Kind of data set: Antitrypanosomal activity against Trypanosoma cruzi Y amastigote forms infected in human U2OS cells after 96 hrs by Draq5 staining-based high content analysis. The data set is classed as functional, cell-based.
For data set [5], the system named is Trypanosoma cruzi. Kind of data set: Antitrypanosomal activity against Trypanosoma cruzi Y amastigote forms infected in human U2OS cells after 96 hrs by Draq5 staining-based high content analysis relative to control. In kind it is functional.
Data set [6] can be described thus: Cytotoxicity against human U2OS cells. The data set is classed as cell-based.
Data set [7] in a line: Selectivity index, ratio of CC50 for human U2OS cells to EC50 for Trypanosoma cruzi Y amastigote forms infected in human U2OS cells. In kind it is toxicity, cell-based. The settings on record: read-out: Ratio CC50/EC50.

Each structure is given as a SMILES string.

Usually EC50 stands for the concentration giving half of the maximal effect. A lower EC50 goes with a more potent agent. By pEC50 is commonly meant the negative decadic logarithm of the EC50, by convention in mol/L. Read a low pEC50 as a large EC50. In data set [1], `CN(C)Cc1ccc(-c2cc3c(-c4cnn(C)c4)ccnc3[nH]2)cc1` had an EC50 not above 1 µM. Moreover, the CC50 at 48 h in data set [2] is 14.5 to 100 µM. The compound further returned a negative logarithm of the EC50 (pEC50) in data set [3] of 6.16 to 9.17.
The matching figures for `CS(=O)(=O)Nc1ccc(-c2c(-c3cccnc3)oc3ncnc(N)c23)cc1`: not above 1 µM, 14.5 to 100 µM and 6.16 to 9.17.
The Emax is the size of the effect at its maximum, as opposed to the concentration needed. On to `CC(C)(C)c1ccc(-c2nccc3[nH]c(C(C)(C)O)cc23)cc1`, for which the EC50 in data set [4] stood at 17 µM. Further, the maximum response (Emax) in data set [5] stood at 110%. In data set [6], this compound showed a CC50 of 35.3 µM. Also, the selectivity ratio in data set [7] turned out to be 1.3.
On to `Cn1cc(-c2cnc3[nH]cc(-c4cccc(C#N)c4)c3c2)cn1`, for which the CC50 at 48 h in data set [2] was 14.5 to 100 µM.
In the case of `CC(C)(O)c1cc2c(-c3ccc(C#N)cc3)nccc2[nH]1`, the Emax in data set [5] stood at 30.6%.
With `CC(C)(O)c1cc2c(-c3ccccc3)nccc2[nH]1`, the midpoint of the response in data set [4], the EC50, lay at 6.5 µM. Further, the Emax in data set [5] came out at 106%. The compound also showed a CC50 in data set [6] of 22.2 µM. Moreover, the selectivity ratio in data set [7] worked out at 3.4.
`CC(C)(O)c1cc2c(-c3ccccc3CO)nccc2[nH]1` yielded an Emax in data set [5] of 30.1%.
Consider `CC(C)(O)c1cc2c(-c3ccc(NC(=O)OCc4ccccc4)cc3)nccc2[nH]1`, for which the EC50 in data set [4] was found to be 4.5 µM. The compound further registered an Emax in data set [5] of 99.4%. The CC50 in data set [6] stood at 5.5 µM. The selectivity ratio in data set [7] is 1.22.
The compound `CC(C)(O)c1cc2c(-c3ccsc3)nccc2[nH]1` showed an EC50 in data set [4] of 106 µM. Further, the Emax in data set [5] stood at 72.8%. In data set [6], this compound showed a CC50 of 199 µM. The selectivity ratio in data set [7] was 1.6.
Compound `CC(C)(O)c1cc2c(-c3ccc(-c4ccccc4)c(F)c3)nccc2[nH]1` gave an EC50 in data set [4] of 3.8 µM. In addition, the Emax in data set [5] was determined as 75.7%. The same compound displayed a CC50 in data set [6] of 9.1 µM. Also, the selectivity ratio in data set [7] worked out at 2.4.
As to `CC(C)(O)c1cc2c(Cl)nccc2[nH]1`, a half-maximal response in data set [4] (EC50) required 70.8 µM. Besides, in data set [5], the Emax was 106%. In data set [6], this compound returned a CC50 of 15.5 µM. In addition, the selectivity ratio in data set [7] was determined as 0.2.
As for `COc1ccccc1-c1nccc2[nH]c(C(C)(C)O)cc12`, in data set [4], it took 53.9 µM to reach a half-maximal effect (EC50). Moreover, the Emax in data set [5] is 56.6%. Further, the selectivity ratio in data set [7] is more than 3.7.
Turning to `Cc1occc1-c1ncc(O[C@H](CN)c2ccccc2)cc1-c1c[nH]c2ncccc12`, the EC50 in data set [1] is not above 1 µM. In data set [2], the CC50 at 48 h was 14.5 to 100 µM. Moreover, the pEC50 in data set [3] was in the range of 6.16 to 9.17.
In the case of `CC(C)(O)c1cc2c(-c3cc(C(F)(F)F)cc(C(F)(F)F)c3)nccc2[nH]1`, it took 24.3 µM to reach a half-maximal effect in data set [4] (EC50). Moreover, in data set [5], the Emax came out at 72.2%. The compound also returned a CC50 in data set [6] of 59.8 µM. In addition, in data set [7], the selectivity ratio is 2.5.
In the case of `CC(C)(O)c1cc2c(-c3ccc4ccccc4c3)nccc2[nH]1`, it took 20.1 µM to reach a half-maximal effect in data set [4] (EC50). For the same compound, in data set [5], the Emax amounted to 102%. In addition, the CC50 in data set [6] was found to be 22.5 µM. For the same compound, in data set [7], the selectivity ratio is 1.1.
`CC(C)(O)c1cc2c(-c3ccc(F)cc3)nccc2[nH]1` had an EC50 in data set [4] of 45.8 µM. The compound further showed an Emax in data set [5] of 75.8%. The CC50 in data set [6] was determined as 93.6 µM. For the same compound, in data set [7], the selectivity ratio stood at 2.
With `CC(=O)c1ccc(-c2nccc3[nH]c(C(C)(C)O)cc23)cc1`, the response in data set [4] was half-maximal at 137 µM (EC50). In data set [5], the maximum response (Emax) is 60.9%. Further, the selectivity ratio in data set [7] was more than 1.4.
Consider `O=C(Nc1ccc(-c2ccnc3[nH]ccc23)s1)C1(Cc2ccccc2)CCCNC1` (stereo not drawn), for which the EC50 in data set [1] was not above 1 µM. The CC50 at 48 h in data set [2] is 14.5 to 100 µM. In addition, the pEC50 in data set [3] lay in the range of 6.16 to 9.17.
For the compound `Cc1cccc(-c2nccc3[nH]c(C(C)(C)O)cc23)c1`, a half-maximal effect in data set [4] (EC50) was put at 52.3 µM. Further, the Emax in data set [5] came out at 101%. This compound also had a CC50 in data set [6] of 121 µM. In addition, in data set [7], the selectivity ratio worked out at 1.7.
The like results for `Cc1ccc(-c2nccc3[nH]c(C(C)(C)O)cc23)cc1` were, in that order, 34.6 µM, 86%, 38.5 µM and 1.1.
The like results for `CC(C)(O)c1cc2c(-c3ccc(C(F)(F)F)cc3)nccc2[nH]1` were, in that order, 40.9 µM, 102%, 72.3 µM and 1.5.
Compound `CN(C)Cc1ccc(-c2[nH]c3ncc(C#N)cc3c2-c2ccccc2)cc1` gave an EC50 in data set [1] not above 1 µM. Besides, the CC50 at 48 h in data set [2] is 14.5 to 100 µM. This compound registered a pEC50 in data set [3] of 6.16 to 9.17.
`CC[C@@H]1COCCN1c1cc(-c2cc(OC)c3c(N)n[nH]c3c2)nc(N)n1` gave an EC50 in data set [1] not above 1 µM. Moreover, the CC50 at 48 h in data set [2] is 14.5 to 100 µM. In data set [3], this compound displayed a pEC50 of 6.16 to 9.17.
`CCSc1ccc(-c2nccc3[nH]c(C(C)(C)O)cc23)cc1` displayed a 50% effective concentration (EC50) in data set [4] of 9.6 µM. The same compound gave an Emax in data set [5] of 107%. In addition, the CC50 in data set [6] is 17.2 µM. Further, the selectivity ratio in data set [7] stood at 1.8.
Turning to `OCCn1c(CNCCCNc2nc3ccccc3[nH]2)cc2c(Cl)cc(Cl)cc21`, the EC50 in data set [1] was not above 1 µM. Also, the CC50 at 48 h in data set [2] was 14.5 to 100 µM. The compound also came in with a pEC50 in data set [3] of 6.16 to 9.17.
Consider `O=C(Cn1ccnc1[N+](=O)[O-])NCc1ccccc1` [BENZNIDAZOLE], for which a half-maximal response in data set [4] (EC50) required 3.6 µM. Moreover, in data set [5], the maximum response (Emax) worked out at 102%. Besides, the selectivity ratio in data set [7] was more than 235.
In data set [1], `CC(C)=Cc1cccc2c1/C(=N/Nc1ccc(S(N)(=O)=O)cc1)C(=O)N2` [GW396574X] had an EC50 not above 1 µM. For the same compound, the CC50 at 48 h in data set [2] was 14.5 to 100 µM. The pEC50 in data set [3] was 6.16 to 9.17.

(Values after ChEMBL document CHEMBL4004845, “Synthesis and trypanocidal activity of a library of 4-substituted 2-(1H-pyrrolo[3,2-c]pyridin-2-yl)propan-2-ols” (Eur J Med Chem, 2017).)
